Assay results reported in patent publication US20140187587A1, “SYNERGISTIC FUNGICIDAL MIXTURES FOR FUNGAL CONTROL IN CEREALS” (Dow Agrosciences LLC, priority 2012, published 2014).

Assays:
[1] = tested on: Puccinia recondita (PUCCRT); assay: 3-day curative (3DC) test of fungicide mixtures vs. wheat brown rust; format: in vivo; conditions: single active, wheat (Yuma) plants
Experimental: (§1) For the mixture studies with the compound of Formula I: Treatments consisted of fungicides, including the compound of Formula I and fluxapyroxad. Technical grades of materials were dissolved in acetone to make stock solutions, which were then used to perform 4-fold dilutions in acetone for each individual fungicide component or for the two-way mixture. Desired fungicide rates were obtained after mixing dilutions with 9 volumes of water containing 110 parts per million (ppm) Triton X-100. The fungicide solutions (20 milliliters (mL)) were applied to 12 pots of plants using an automated booth sprayer, which utilized two 6218-1/4 JAUPM spray nozzles operating at 20 pounds per square inch (psi) set at opposing angles to cover both leaf surfaces. All sprayed plants were allowed to air dry prior to further handling. Control plants were sprayed in the same manner with a solvent blank.
Evaluation of Curative Activity of Fungicide Mixtures vs. Wheat Brown Rust (Puccinia recondita; Bayer Code: PUCCRT).
Yuma wheat seedlings were grown as described above and inoculated with an aqueous spore suspension of Puccinia recondita 3 days prior to fungicide treatment (3DC). After inoculation, plants were placed in a dew room for 1 day to allow for infection to occur. The plants were then placed in the greenhouse for symptom development to occur, which in the case of PUCCRT typically required 7-10 days.
(§2) When disease severity reached 50-100% on the control plants, infection levels were assessed on treated plants visually and scored on a scale of 0 to 100 percent. The percentage of disease control was then calculated using the ratio of disease on treated plants relative to control plants.
(§3) The Colby equation was used to determine the fungicidal effects expected from the mixtures. (See Colby, S. R. Calculation of the synergistic and antagonistic response of herbicide combinations. Weeds 1967, 15, 20-22.)
(§4) The following equation was used to calculate the expected activity of mixtures containing two active ingredients, A and B:
(§5) A=observed efficacy of active component A at the same concentration as used in the mixture;
(§6) B=observed efficacy of active component B at the same concentration as used in the mixture.

[2] = tested on: Septoria tritici (SEPTTR); assay: 1-day protectant (1DP) test of fungicide mixtures vs. leaf blotch of wheat; format: in vivo, Mycosphaerella graminicola; anamorph: Septoria tritici; conditions: single active, wheat (Yuma) plants
Experimental: as §1
Evaluation of Curative and Protectant Activity of Fungicide Mixtures vs. Leaf Blotch of Wheat (Mycosphaerella graminicola; Anamorph: Septoria tritici; Bayer Code: SEPTTR).
Wheat plants (variety Yuma) were grown from seed in a greenhouse in plastic pots with a surface area of 27.5 square centimeters (cm^2) containing 50% mineral soil/50% soil-less Metro mix, with 8-12 seedlings per pot. The plants were utilized for testing when the first leaf was fully emerged, which typically occurred 7-8 days after planting. Test plants were inoculated with an aqueous spore suspension of Septoria tritici either (a) 3 days prior to fungicide treatments (3-day curative test, 3DC) or (b) 1 day after fungicide treatments (1-day protectant test, 1DP). After inoculation the plants were placed in a dew room from 1-3 days to allow for infection to occur. The plants were then placed in the greenhouse for symptom development to occur, which in the case of SEPTTR typically required 25-30 days.
as §2, §3, §4, §5, §6

Row | Compound | % DC Obs (percent disease control observed), PUCCRT 3DC ([1]; application rate 0.1 ppm) [%] | % DC Obs (percent disease control observed), PUCCRT 3DC ([1]; application rate 0.39 ppm) [%] | % DC Obs (percent disease control observed), PUCCRT 3DC ([1]; application rate 1.56 ppm) [%] | % DC Obs (percent disease control observed), PUCCRT 3DC ([1]; application rate 6.25 ppm) [%] | % DC Obs (percent disease control observed), SEPTTR 1DP ([2]; application rate 0.1 ppm) [%] | % DC Obs (percent disease control observed), SEPTTR 1DP ([2]; application rate 0.39 ppm) [%] | % DC Obs (percent disease control observed), SEPTTR 1DP ([2]; application rate 1.56 ppm) [%] | % DC Obs (percent disease control observed), SEPTTR 1DP ([2]; application rate 6.25 ppm) [%]
1 | COc1ccnc(C(=O)N[C@H]2COC(=O)[C@H](Cc3ccccc3)[C@@H](OC(=O)C(C)C)[C@H](C)OC2=O)c1OCOC(=O)C(C)C [Compound I, (3S,6S,7R,8R)-8-benzyl-3-(3-((isobutyryloxy)methoxy)-4-methoxypicolinamido)-6-methyl-4,9-dioxo-1,5-dioxonan-7-yl isobutyrate] | 2 | 0 | 12 | 98 | 0 | 0 | 2 | 93
2 | Cn1cc(C(=O)Nc2ccccc2-c2cc(F)c(F)c(F)c2)c(C(F)F)n1 [Fluxapyroxad, 3-(difluoromethyl)-1-methyl-N-(3′,4′,5′-trifluorobiphenyl-2-yl)pyrazole-4-carboxamide] | 0 | 0 | 86 | 100 | 0 | 0 | 0 | 94
